The source made the active and inactive calls. No cut-off for these calls is given here.
Key:
[1] = Selectivity ratio for agonist activity at VDR LBD (unknown origin) transiently transfected in HEK293T cells to agonist activity at human NOR-1 LBD transiently transfected in HEK293T cells; format: cell-based
[2] = molecular target: T1, Retinoic acid receptor RXR-alpha (Homo sapiens) (UniProt P19793); assay: Agonist activity at human full length RXRalpha transiently transfected in HEK293T cells at 1 uM incubated for 16 hrs by Gal4-hybrid reporter gene based Dual-glo luciferase assay; format: cell-based
T1 sequence (whole entry): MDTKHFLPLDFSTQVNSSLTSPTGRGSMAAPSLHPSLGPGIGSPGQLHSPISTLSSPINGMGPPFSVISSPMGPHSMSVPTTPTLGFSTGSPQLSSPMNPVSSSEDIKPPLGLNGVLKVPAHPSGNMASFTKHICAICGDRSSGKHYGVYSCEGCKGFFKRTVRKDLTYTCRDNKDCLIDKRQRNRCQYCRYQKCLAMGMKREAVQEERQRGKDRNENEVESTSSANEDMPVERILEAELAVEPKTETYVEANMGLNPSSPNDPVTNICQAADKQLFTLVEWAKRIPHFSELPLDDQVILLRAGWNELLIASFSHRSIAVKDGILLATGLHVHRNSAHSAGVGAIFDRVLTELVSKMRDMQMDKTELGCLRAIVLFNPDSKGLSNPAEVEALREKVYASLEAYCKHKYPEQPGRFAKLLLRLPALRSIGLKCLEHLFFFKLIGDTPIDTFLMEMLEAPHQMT

[3] = Selectivity ratio for agonist activity at RARalpha LBD (unknown origin) transiently transfected in HEK293T cells to agonist activity at human NOR-1 LBD transiently transfected in HEK293T cells; format: cell-based
[4] = Selectivity ratio for agonist activity at PPARdelta LBD (unknown origin) transiently transfected in HEK293T cells to agonist activity at human Nur77 LBD transiently transfected in HEK293T cells; format: cell-based
[5] = molecular target: Nuclear receptor subfamily 4immunitygroup A member 1 (Homo sapiens, UniProt P22736); assay: Agonist activity at human Nur77 LBD transiently transfected in HEK293T cells incubated for 16 hrs by Gal4-hybrid reporter gene based Dual-glo luciferase assay; format: cell-based
Nuclear receptor subfamily 4immunitygroup A member 1, sequence (P22736 whole entry, the tested form may be a part): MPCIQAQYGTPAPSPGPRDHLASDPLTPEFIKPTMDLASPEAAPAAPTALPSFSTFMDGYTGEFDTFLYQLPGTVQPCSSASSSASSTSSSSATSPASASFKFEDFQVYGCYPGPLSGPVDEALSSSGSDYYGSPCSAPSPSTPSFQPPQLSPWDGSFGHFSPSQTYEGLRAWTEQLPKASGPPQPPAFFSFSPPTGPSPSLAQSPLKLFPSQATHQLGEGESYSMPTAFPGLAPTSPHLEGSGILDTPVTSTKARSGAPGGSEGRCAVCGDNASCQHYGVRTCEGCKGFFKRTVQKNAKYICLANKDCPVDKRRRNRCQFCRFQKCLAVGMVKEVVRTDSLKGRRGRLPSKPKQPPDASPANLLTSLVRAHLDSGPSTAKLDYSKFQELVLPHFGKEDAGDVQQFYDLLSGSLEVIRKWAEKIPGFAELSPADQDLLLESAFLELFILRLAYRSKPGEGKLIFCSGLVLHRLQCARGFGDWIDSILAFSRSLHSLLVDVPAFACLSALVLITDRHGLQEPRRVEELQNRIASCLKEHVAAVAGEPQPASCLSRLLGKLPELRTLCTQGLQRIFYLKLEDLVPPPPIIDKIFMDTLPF

[6] = Selectivity ratio for agonist activity at RXRalpha LBD (unknown origin) transiently transfected in HEK293T cells to agonist activity at human Nurr1 LBD transiently transfected in HEK293T cells; format: cell-based
[7] = molecular target: Nuclear receptor subfamily 4 group A member 3 (Homo sapiens, UniProt Q92570); assay: Agonist activity at human NOR-1 LBD transiently transfected in HEK293T cells assessed as maximal activation incubated for 16 hrs by Gal4-hybrid reporter gene based Dual-glo luciferase assay relative to control; format: cell-based; details: filed as agonist
Nuclear receptor subfamily 4 group A member 3, sequence (Q92570 whole entry, the tested form may be a part): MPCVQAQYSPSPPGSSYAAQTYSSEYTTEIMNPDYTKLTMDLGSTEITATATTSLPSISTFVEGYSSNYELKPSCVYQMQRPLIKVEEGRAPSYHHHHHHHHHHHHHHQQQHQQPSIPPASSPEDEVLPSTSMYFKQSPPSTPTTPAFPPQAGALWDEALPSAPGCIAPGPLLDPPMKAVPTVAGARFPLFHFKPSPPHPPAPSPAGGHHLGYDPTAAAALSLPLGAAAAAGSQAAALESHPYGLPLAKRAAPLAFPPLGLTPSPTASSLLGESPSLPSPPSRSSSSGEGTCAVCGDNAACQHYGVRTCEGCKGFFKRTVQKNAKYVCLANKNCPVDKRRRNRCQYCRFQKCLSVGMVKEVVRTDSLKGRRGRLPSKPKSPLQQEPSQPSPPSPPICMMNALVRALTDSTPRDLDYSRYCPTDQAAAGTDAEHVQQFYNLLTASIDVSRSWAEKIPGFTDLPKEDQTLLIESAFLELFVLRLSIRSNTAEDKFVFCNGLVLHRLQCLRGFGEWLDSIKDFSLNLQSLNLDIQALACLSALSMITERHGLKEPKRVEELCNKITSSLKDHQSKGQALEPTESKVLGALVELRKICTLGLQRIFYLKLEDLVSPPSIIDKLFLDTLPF

[8] = molecular target: T2, Retinoic acid receptor alpha (Homo sapiens) (UniProt P10276); assay: Agonist activity at RARalpha LBD (unknown origin) transiently transfected in HEK293T cells at 1 uM incubated for 16 hrs by Gal4-hybrid reporter gene based Dual-glo luciferase assay; format: cell-based
T2 sequence (whole entry): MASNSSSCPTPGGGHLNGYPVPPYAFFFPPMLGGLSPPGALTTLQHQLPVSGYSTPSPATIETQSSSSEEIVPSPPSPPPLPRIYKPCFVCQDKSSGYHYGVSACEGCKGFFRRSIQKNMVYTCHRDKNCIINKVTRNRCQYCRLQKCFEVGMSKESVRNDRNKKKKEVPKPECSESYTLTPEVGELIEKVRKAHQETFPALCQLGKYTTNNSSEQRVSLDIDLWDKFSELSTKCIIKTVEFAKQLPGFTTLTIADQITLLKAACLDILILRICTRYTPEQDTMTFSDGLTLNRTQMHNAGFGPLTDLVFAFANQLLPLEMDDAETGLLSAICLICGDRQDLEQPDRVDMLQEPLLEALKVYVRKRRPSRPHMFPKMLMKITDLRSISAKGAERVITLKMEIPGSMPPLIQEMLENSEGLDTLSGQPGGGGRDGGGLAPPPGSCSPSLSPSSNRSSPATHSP

[9] = molecular target: T3, Nuclear receptor subfamily 4 group A member 2 (Homo sapiens, UniProt P43354); details: filed as agonist, dose 100.0 µM
T3 sequence (P43354 whole entry, the tested form may be a part): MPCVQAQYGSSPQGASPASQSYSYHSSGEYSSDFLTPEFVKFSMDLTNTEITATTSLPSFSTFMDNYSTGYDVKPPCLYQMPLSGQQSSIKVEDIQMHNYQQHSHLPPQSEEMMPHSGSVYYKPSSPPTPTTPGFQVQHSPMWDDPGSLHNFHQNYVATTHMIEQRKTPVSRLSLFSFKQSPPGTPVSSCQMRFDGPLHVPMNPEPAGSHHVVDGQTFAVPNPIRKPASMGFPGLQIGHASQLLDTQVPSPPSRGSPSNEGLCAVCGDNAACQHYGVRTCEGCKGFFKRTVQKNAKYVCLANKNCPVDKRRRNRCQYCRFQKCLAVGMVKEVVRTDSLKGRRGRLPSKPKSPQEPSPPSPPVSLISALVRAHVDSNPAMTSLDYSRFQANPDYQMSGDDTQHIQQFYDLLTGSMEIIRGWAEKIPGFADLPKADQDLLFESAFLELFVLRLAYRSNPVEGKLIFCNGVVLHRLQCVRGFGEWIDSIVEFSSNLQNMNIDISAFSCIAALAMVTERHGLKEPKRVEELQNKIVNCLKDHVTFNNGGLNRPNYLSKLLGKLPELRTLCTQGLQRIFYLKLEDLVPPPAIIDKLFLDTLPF

[10] = molecular target: T3, Nuclear receptor subfamily 4 group A member 2; assay: Agonist activity at human Nurr1 LBD transiently transfected in HEK293T cells incubated for 16 hrs by Gal4-hybrid reporter gene based Dual-glo luciferase assay; format: cell-based; details: read-out: EC50
[11] = molecular target: T4, Peroxisome proliferator-activated receptor alpha (Homo sapiens) (UniProt Q07869); assay: Agonist activity at PPARalpha LBD (unknown origin) transiently transfected in HEK293T cells at 1 uM incubated for 16 hrs by Gal4-hybrid reporter gene based Dual-glo luciferase assay; format: cell-based
T4 sequence (whole entry): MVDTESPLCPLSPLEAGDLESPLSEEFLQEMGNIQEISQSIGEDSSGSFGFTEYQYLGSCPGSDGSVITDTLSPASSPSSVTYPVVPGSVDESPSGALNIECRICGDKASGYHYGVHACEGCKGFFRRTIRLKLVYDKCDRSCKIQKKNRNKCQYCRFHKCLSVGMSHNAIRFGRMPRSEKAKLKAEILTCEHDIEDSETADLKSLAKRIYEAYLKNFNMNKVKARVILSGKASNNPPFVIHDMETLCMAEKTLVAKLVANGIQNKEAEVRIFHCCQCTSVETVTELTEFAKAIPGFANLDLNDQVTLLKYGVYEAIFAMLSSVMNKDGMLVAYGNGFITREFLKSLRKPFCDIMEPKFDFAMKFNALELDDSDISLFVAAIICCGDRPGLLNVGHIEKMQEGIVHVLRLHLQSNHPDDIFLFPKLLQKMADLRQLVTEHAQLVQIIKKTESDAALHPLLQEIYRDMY

SMILES: CC(C)(C)c1ccc(COc2cccc(C(=O)O)c2)cc1
- Selectivity ratio [1]: > 30
- Activity [2]: inactive
- Selectivity ratio [3]: > 30
- Selectivity ratio [4]: > 30
- EC50 [5]: 140 nM
- Selectivity ratio [6]: > 30
- Emax [7]: 185%
- Activity [8]: inactive
- -TdeltaS [9]: -5.2 kcal/mol
- EC50 [10]: 120 nM
- Activity [11]: inactive

Reference: ChEMBL document CHEMBL5390264, “Exploring Fatty Acid Mimetics as NR4A Ligands” (J Med Chem, 2023)
